# Data published in BindingDB's records for patent US20250082630 (AstraZeneca, 2025).
# Experiments:
# [1] = molecular target: Poly [ADP-ribose] polymerase 1 (Homo sapiens, UniProt P09874); experiment: PARP Fluorescence Anisotropy Binding Assay
# Experimental: (§1) Recombinant full length 6HIS tagged PARP1 protein was diluted to 6 nM with 50 mM Tris pH 8, 0.001% Triton X100, 10 mM MgCl2, 150 mM NaCl and incubated for four hours with an equivalent volume of 2 nM fluorescent probe diluted with 50 mM Tris pH 8, 0.001% Triton X100, 10 mM MgCl2, 150 mM NaCl. The final DMSO concentration of the probe was kept below 1% (v/v).Recombinant full length PARP2 protein was diluted to 6 nM with 50 mM Tris pH 8, 0.001% Triton X100, 10 mM MgCl2, 150 mM NaCl and incubated for four hours with an equivalent volume of 2 nM fluorescent probe diluted with 50 mM Tris pH 8, 0.001% Triton X100, 10 mM MgCl2, 150 mM NaCl. The final DMSO concentration of the probe was kept below 1% (v/v).Recombinant full length PARP3 protein was diluted to 100 nM with 50 mM Tris pH 8, 0.001% Triton X100, 10 mM MgCl2, 150 mM NaCl and incubated for four hours with an equivalent volume of 6 nM fluorescent probe diluted with 50 mM Tris pH 8, 0.001% Triton X100, 10 mM MgCl2, 150 mM NaCl.
# [2] = molecular target: Poly [ADP-ribose] polymerase 2 (Homo sapiens, UniProt Q9UGN5); experiment: PARP Fluorescence Anisotropy Binding Assay
# Sequence of Poly [ADP-ribose] polymerase 2 (Q9UGN5 whole entry): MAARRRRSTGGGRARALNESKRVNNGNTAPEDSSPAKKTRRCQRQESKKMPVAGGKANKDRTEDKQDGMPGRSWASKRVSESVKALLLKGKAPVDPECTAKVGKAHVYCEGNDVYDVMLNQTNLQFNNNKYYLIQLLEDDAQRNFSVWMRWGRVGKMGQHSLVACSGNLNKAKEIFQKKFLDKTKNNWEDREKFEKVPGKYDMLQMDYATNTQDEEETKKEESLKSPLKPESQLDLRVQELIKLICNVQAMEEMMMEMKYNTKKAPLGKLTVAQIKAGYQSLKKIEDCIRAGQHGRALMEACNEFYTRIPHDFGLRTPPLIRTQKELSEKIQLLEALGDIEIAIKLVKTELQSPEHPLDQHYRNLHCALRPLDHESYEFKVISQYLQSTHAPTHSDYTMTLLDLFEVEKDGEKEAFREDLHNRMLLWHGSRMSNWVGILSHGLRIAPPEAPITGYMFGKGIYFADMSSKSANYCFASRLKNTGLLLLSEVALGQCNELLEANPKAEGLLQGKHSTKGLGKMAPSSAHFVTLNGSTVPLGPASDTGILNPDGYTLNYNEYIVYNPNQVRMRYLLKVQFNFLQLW
# Experimental: as §1
# Sequence of Poly [ADP-ribose] polymerase 1 (P09874 whole entry): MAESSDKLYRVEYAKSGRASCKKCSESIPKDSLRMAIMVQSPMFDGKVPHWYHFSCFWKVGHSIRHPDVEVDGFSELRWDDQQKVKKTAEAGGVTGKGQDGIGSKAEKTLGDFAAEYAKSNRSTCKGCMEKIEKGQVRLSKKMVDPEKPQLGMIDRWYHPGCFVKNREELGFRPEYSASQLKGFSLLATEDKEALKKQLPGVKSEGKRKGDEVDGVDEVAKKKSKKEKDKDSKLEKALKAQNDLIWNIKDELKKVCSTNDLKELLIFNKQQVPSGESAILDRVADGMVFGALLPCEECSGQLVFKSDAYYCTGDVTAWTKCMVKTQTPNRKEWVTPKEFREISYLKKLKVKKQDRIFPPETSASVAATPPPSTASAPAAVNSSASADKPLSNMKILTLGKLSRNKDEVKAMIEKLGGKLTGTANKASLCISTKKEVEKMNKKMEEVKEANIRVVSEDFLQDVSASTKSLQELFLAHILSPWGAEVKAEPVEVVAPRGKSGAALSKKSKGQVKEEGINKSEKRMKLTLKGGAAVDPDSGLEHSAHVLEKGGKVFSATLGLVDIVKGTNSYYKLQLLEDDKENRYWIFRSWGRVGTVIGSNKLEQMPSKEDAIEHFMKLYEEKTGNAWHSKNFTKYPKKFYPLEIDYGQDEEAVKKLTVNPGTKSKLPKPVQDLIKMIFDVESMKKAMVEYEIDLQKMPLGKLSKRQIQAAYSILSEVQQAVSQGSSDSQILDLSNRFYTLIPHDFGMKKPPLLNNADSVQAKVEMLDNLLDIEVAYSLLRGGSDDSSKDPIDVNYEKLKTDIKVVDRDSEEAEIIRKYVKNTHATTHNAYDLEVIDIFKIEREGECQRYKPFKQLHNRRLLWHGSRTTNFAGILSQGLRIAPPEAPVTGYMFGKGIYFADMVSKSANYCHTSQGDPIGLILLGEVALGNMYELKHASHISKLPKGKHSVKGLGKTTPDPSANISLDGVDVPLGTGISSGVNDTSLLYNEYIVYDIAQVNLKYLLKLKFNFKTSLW
smiles,measurement,setting,value
"CNC(=O)c1ccc(N2CCN(Cc3ccc4nc(OC)c(=O)[nH]c4c3C)CC2)c(F)n1 [US20250082630, Example 58]",IC50,[1],8 nM
same,IC50,[2],> 100000 nM
